Measurements from patent US6770659B2, “Benzoyl piperidine compounds” (SK Corporation, priority 2002, dated 2004).
Like-named read-outs stand apart in the source and are kept apart here.

Tested on: climbing behavior induced by apomorphine in mice
Assay: Climbing Mouse Assay (anti-climbing behavior test)
Assay type: in vivo
Details: ICR CD strain male mice, apomorphine challenge; for ED50: Mus musculus
Excerpt: This activity was examined through the anti-climbing behavior test, i.e. the test for suppressing the climbing behavior induced by apomorphine in mice. A designated amount of the test compound was intraperitoneally or orally administered to several groups of ICR CD strain male mice (body weight, 20 to 25 g; one group, 6 mice), and each of the animals was charged in an individual column cage of 12 cm in diameter and 14 cm in height having metal poles (each pole, 2 mm in diameter) vertically installed and arranged along the periphery with interval of 1 cm.
Compounds to be tested for antipsychotic activity are injected intraperitoneally or given orally at various time intervals, e.g. 30 minutes, 60 minutes, etc., prior to the apomorphine challenge at a screening dose of 0.1-60 mg/kg.
For evaluation of climbing, 3 readings are taken at 10, 20 and 30 minutes after apomorphine administration according to the following scale:
Mice consistently climbing before the injection of apomorphine will be discarded.
With full-developed apomorphine climbing, the animals are hanging on to the cage walls, rather motionless, over longer periods of time. By contrast, climbing due to mere motor stimulation usually only lasts a few seconds.
The climbing scores are individually totaled (maximal score: 12 per mouse over 3 readings) and the total score of the control group (vehicle intraperitoneally-apomorphine subcutaneously) is set to 100%. ED50 values with 95% confidence limits, calculated by a linear regression analysis, of some of the compounds of the instant invention as well as a standard antipsychotic agent are presented in Table I.

[1] = intraperitoneal administration, read-out: Climbing Mouse Assay ED50 i.p.
[2] = oral administration, read-out: Climbing Mouse Assay ED50 p.o. (converted)

Cl.O=C(NCc1ccccc1)OC(CN1CCC(C(=O)c2ccc(F)cc2)CC1)c1ccccc1 (centres unmarked) [Benzyl-carbamic acid 2-[4-(4-fluoro-benzoyl)-piperidin-1-yl]-1-phenyl-ethyl ester; hydrochloride]
ED50 [1]: 2.2 mg/kg
ED50 [2]: 7.1 mg/kg

Cl.NC(=O)OC(CN1CCC(C(=O)c2ccc(F)cc2)CC1)c1ccccc1 (centres unmarked) [Carbamic acid 2-[4-(4-fluoro-benzoyl)-piperidin-1-yl]-1-phenyl-ethyl ester; hydrochloride]
ED50 [1]: 4.8 mg/kg
ED50 [2]: 9.7 mg/kg

Cl.NC(=O)OC(CN1CCC(C(=O)c2ccc(F)cc2)CC1)c1cccc([N+](=O)[O-])c1 (centres unmarked) [Carbamic acid 2-[4-(4-fluoro-benzoyl)-piperidin-1-yl]-1-(3-nitro-phenyl)-ethyl ester; hydrochloride]
ED50 [1]: 2.6 mg/kg

Cl.NC(=O)OC(CN1CCC(C(=O)c2ccc(F)cc2)CC1)c1cccc(Cl)c1 (centres unmarked) [Carbamic acid 1-(3-chloro-phenyl)-2-[4-(4-fluoro-benzoyl)-piperidin-1-yl]-ethyl ester; hydrochloride]
ED50 [1]: 0.56 mg/kg
ED50 [2]: 0.94 mg/kg

Cc1nc2n(c(=O)c1CCN1CCC(c3noc4cc(F)ccc34)CC1)CCCC2 [Risperidone, reference compound]
ED50 [1]: 0.11 mg/kg
ED50 [2]: 0.29 mg/kg

Cl.NC(=O)OC(COc1ccccc1)CN1CCC(C(=O)c2ccc(F)cc2)CC1 (centres unmarked) [Carbamic acid 1-[4-(4-fluoro-benzoyl)-piperidin-1-ylmethyl]-2-phenoxy-ethyl ester; hydrochloride]
ED50 [1]: 2 mg/kg
ED50 [2]: 8.5 mg/kg

CC(C)c1ccc(C(CN2CCC(C(=O)c3ccc(F)cc3)CC2)n2cncn2)cc1.Cl.Cl.Cl (centres unmarked) [(4-Fluoro-phenyl)-{1-[2-(4-isopropyl-phenyl)-2-[1,2,4]triazoyl-1-yl-ethyl]-piperidin-4-yl}-methanone trihydrochloride]
Climbing Mouse Assay ED50 i.p. (intraperitoneal administration): 3.1 mg/kg
Climbing Mouse Assay ED50 p.o. (oral administration): 4.7 mg/kg

CO[C@@H](CN1CCC(C(=O)c2ccc(F)cc2)CC1)c1ccc([N+](=O)[O-])cc1 [(R)-(4-Fluoro-phenyl)-{1-[2-methoxy-2-(4-nitro-phenyl)-ethyl]-piperidin-4-yl}-methanone]
ED50 [1]: 24.2 mg/kg

COC(CN1CCC(C(=O)c2ccc(F)cc2)CC1)c1ccc([N+](=O)[O-])cc1.Cl (centres unmarked) [(4-Fluoro-phenyl)-{1-[2-methoxy-2-(4-nitro-phenyl)-ethyl]-piperidin-4yl}-methanone; hydrochloride]
ED50 [1]: 5.9 mg/kg
ED50 [2]: 51.2 mg/kg

Cc1ccc(C(CN2CCC(C(=O)c3ccc(F)cc3)CC2)n2cncn2)cc1C (centres unmarked) [{1-[2-(3,4-Dimethyl-phenyl)-2-[1,2,4]triazol-1-yl-ethyl]-piperidin-4-yl}-(4-fluoro-phenyl)-methanone]
ED50 [1]: 4.5 mg/kg
ED50 [2]: 16.6 mg/kg

CCc1ccc(C(CN2CCC(C(=O)c3ccc(F)cc3)CC2)OC(=O)OC)cc1 (centres unmarked) [Carbonic acid 1-(4-ethyl-phenyl)-2-[4-(4-fluoro-benzoyl)-piperidin-1-yl]-ethyl ester methyl ester]
ED50 [1]: 2.4 mg/kg
ED50 [2]: 7.6 mg/kg

COC(CN1CCC(C(=O)c2ccc(F)cc2)CC1)c1ccc(C(C)C)cc1 (centres unmarked) [(4-Fluoro-phenyl)-{1-[2-(4-isopropyl-phenyl)-2-methoxy-ethyl]-piperidin-4-yl}-methanone]
ED50 [1]: 0.17 mg/kg
ED50 [2]: 0.41 mg/kg

CCc1ccc(C(CN2CCC(C(=O)c3ccc(F)cc3)CC2)OC)cc1 (centres unmarked) [{1-[2-(4-Ethyl-phenyl)-2-methoxy-ethyl]-piperidin-4-yl}-(4-fluoro-phenyl)-methanone]
ED50 [1]: 0.87 mg/kg

CCOC(CN1CCC(C(=O)c2ccc(F)cc2)CC1)c1ccc([N+](=O)[O-])cc1 (centres unmarked) [{1-[2-Ethoxy-2-(4-nitro-phenyl)-ethyl]-piperidin-4-yl}-(4-fluoro-1phenyl)-methanone]
Climbing Mouse Assay ED50 i.p. (intraperitoneal administration): 4.16 mg/kg

Cl.NC(=O)O[C@H](CN1CCC(C(=O)c2ccc(F)cc2)CC1)c1ccccc1 [(S)-Carbamic acid 2-[4-(4-fluoro-benzoyl)-piperidin-1-yl]-1-phenyl-ethyl ester; hydrochloride]
ED50 [1]: 0.96 mg/kg
ED50 [2]: 4.3 mg/kg

O=C(c1ccc(F)cc1)C1CCN(CC(COc2ccccc2)OC(=O)N2CCCCCC2)CC1 (centres unmarked) [Azepane-1-carboxylic acid 1-[4-(4-fluoro-benzoyl)-piperidin-1-ylmethyl]-2-phenoxy-ethyl ester]
ED50 [1]: 1.5 mg/kg

CC(C)OC(=O)OC(CN1CCC(C(=O)c2ccc(F)cc2)CC1)c1cccc(Cl)c1 (centres unmarked) [Carbonic acid 1-(3-chloro-phenyl)-2-[4-(4-fluoro-benzoyl)-piperidin-1-yl]-ethyl ester isopropyl ester]
ED50 [1]: 6.2 mg/kg

Cl.NC(=O)OC(CN1CCC(C(=O)c2ccc(F)cc2)CC1)c1ccc(C(F)(F)F)cc1 (centres unmarked) [Carbamic acid 2-[4-(4-fluoro-benzoyl)-piperidin-1-yl]-1-(4-trifluoromethyl-phenyl)-ethyl ester; hydrochloride]
ED50 [1]: 1.8 mg/kg

CO[C@H](CN1CCC(C(=O)c2ccc(F)cc2)CC1)c1ccc(C(C)C)cc1 [(S)-(4-Fluoro-phenyl)-{1-[2-(4-isopropyl-phenyl)-2-methoxy-ethyl]-piperidin-4-yl}-methanone]
ED50 [1]: 0.13 mg/kg
ED50 [2]: 0.09 mg/kg

CCc1ccc([C@@H](CN2CCC(C(=O)c3ccc(F)cc3)CC2)OC)cc1 [(S)-{1-[2-(4-Ethyl-phenyl)-2-methoxy-ethyl]-piperidin-4-yl}-(4-fluoro-phenyl)-methanone]
ED50 [1]: 0.31 mg/kg
ED50 [2]: 1.2 mg/kg

Cl.NC(=O)O[C@@H](CN1CCC(C(=O)c2ccc(F)cc2)CC1)c1ccccc1 [(R)-Carbamic acid 2-[4-(4-fluoro-benzoyl)-piperidin-1-yl]-1-phenyl-ethyl ester; hydrochloride]
ED50 [1]: 17.8 mg/kg
ED50 [2]: 46.2 mg/kg

Cl.NC(=O)OC(CN1CCC(C(=O)c2ccc(F)cc2)CC1)c1ccc(Cl)c(Cl)c1 (centres unmarked) [Carbamic acid 1-(3,4-dichloro-phenyl)-2-[4-(4-fluoro-benzoyl)-piperidin-1-yl]-ethyl ester; hydrochloride]
ED50 [1]: 0.32 mg/kg
ED50 [2]: 0.48 mg/kg

CN1CCN(C2=Nc3cc(Cl)ccc3Nc3ccccc32)CC1 [Clozapine, reference compound]
ED50 [1]: 6.3 mg/kg
ED50 [2]: 13.5 mg/kg

CO[C@H](CN1CCC(C(=O)c2ccc(F)cc2)CC1)c1ccc([N+](=O)[O-])cc1 [(S)-(4-Fluoro-phenyl)-{1-[2-methoxy-2-(4-nitro-phenyl)-ethyl]-piperidin-4-yl}-methanone]
ED50 [1]: 4.5 mg/kg
ED50 [2]: 16.9 mg/kg
